Results from patent publication US20160303182A1, “USE OF PEPTIDES IN ANTIBIOTIC RESISTANCE” (priority 2013, published 2016).
Bridges are numbered along the chain shown (N, C = ends). Where no end group is shown, it is not given here.

Assays:
[1] = system: methicillin sensitive S. aureus ATCC 25923 (MSSA); test: CFU count after 24 h incubation with antibiotic alone or with grZ14s-nvCyc; assay type: cell-based, Staphylococcus aureus
Description: (§1) Staphylococcus aureus ATCC 43300 (5×10^5 CFU/mL) (MRSA strain) was incubated in 1.5 mL Eppendorf tubes with either oxacillin alone or oxacillin with the grZ14s-nvCyc peptide (10 nM) (cyclized CSVHSFDYDWYNVC) for 24 hours at 37° C. with shaking (250 rpm). The solutions in the tubes were diluted ten-fold with phosphate buffered saline (PBS) by serial dilutions. The diluted solutions were then seeded on a blood agar plate and incubated at 37° C. for 24 hours. The results represent the number of Colony Forming Unit (CFU) counts on the blood agar plates.
As a comparison, a strain of methicillin sensitive S. aureus ATCC 25923 (5×10^5 CFU/mL) was treated with oxacillin, alone or with the grZ14s-nvCyc (10 nM).
(§2) A similar assay was performed with S. aureus ATCC 43300 at a concentration of 7×10^6 CFU/mL. The bacterial concentration in this assay is higher (˜7×10^6 CFU/mL).
(§3) S. aureus ATCC 33591 (MRSA strain) (5×10^7 CFU/mL) and methicillin sensitive strain (MSSA) of S. aureus ATCC 25923 (1×10^8 CFU/mL) were incubated in 1.5 mL Eppendorf tubes with either oxacillin alone or oxacillin with the grZ14s-nvCyc (10 nM) for 24 hours at 37° C. with shaking (250 rpm). The solutions in the tubes were diluted ten-fold with PBS by serial dilutions. The diluted solutions were then seeded on a blood plate agar and incubated at 37° C. for 24 hours.

[2] = system: Klebsiella pneumoniae ATCC 700603 (MDR resistant strain); test: as above; assay type: cell-based
Description: Klebsiella pneumoniae ATCC 700603 (MDR resistant strain: Resistant to ampicillin, aztreonam, cefoxitin, cefpodoxime, ceftazidime, chloramphenicol, piperacillin, tetracycline) (3×10^5 CFU/mL) was incubated with either ampicillin, alone or with the grZ14s-nvCyc peptide (10 nM), for 24 hours at 37° C. with shaking (250 rpm). The solutions in the tubes were diluted ten-fold with phosphate buffered saline (PBS) by serial dilutions. The diluted solutions were then seeded on a blood plate agar and incubated at 37° C. for 24 hours.
A similar assay was performed with K. pneumoniae at lower bacterial concentrations of 2×10^3 CFU/mL.
K. pneumoniae ATCC 700603 (MDR resistant strain: Resistant to ampicillin, aztreonam, cefoxitin, cefpodoxime, ceftazidime, chloramphenicol, piperacillin, tetracycline) (2×10^6 CFU/mL) was incubated with either cefoxitin, alone or with the grZ14s-nvCyc peptide (10 nM), for 24 hours at 37° C. with shaking (250 rpm). The solutions were then treated as described in the examples above.
Similarly, K. pneumoniae ATCC 700603 (MDR resistant strain: Resistant to ampicillin, aztreonam, cefoxitin, cefpodoxime, ceftazidime, chloramphenicol, piperacillin, tetracycline) (4×10^6 CFU/mL) was incubated with chloramphenicol, alone or with grZ14s-nvCyc, as described in the Examples above.
Similarly, K. pneumoniae ATCC 700603 (MDR resistant strain: Resistant to ampicillin, aztreonam, cefoxitin, cefpodoxime, ceftazidime, chloramphenicol, piperacillin, tetracycline) (1×10^3 CFU/mL) was incubated with chloramphenicol, alone or with grZ14s-nvCyc, as described in the Examples above.

[3] = system: Enterococcus faecium ATCC 700221 (vancomycin, teicoplanin and tetracyclin resistant strain); test: as above; assay type: cell-based; settings: for bacteria killing concentration of tetracyclin lower with grZ14s-nvCyc than with tetracyclin alone: grZ14s-nvCyc (10 mN)
Description: (§4) Enterococcus faecium ATCC 700221 (4×10^2 CFU/mL) (vancomycin, teicoplanin and tetracyclin resistant strain) was incubated in 1.5 mL Eppendorf tubes with either vancomycin, alone or with the grZ14s-nvCyc peptide (10 nM), for 24 hours at 37° C. with shaking (250 rpm). The solutions in the tubes were diluted ten-fold with phosphate buffered saline (PBS) by serial dilutions. The diluted solutions were then seeded on a blood plate agar and incubated at 37° C. for 24 hours.
E. faecium ATCC 700221 (2×10^2 CFU/mL) (vancomycin, teicoplanin and tetracyclin resistant strain) was incubated with either teicoplanin, alone or with the grZ14s-nvCyc peptide (10 nM), for 24 hours at 37° C. with shaking (250 rpm). The solutions were treated as described above.
E. faecium ATCC 700221 (1×10^3 CFU/mL) (vancomycin, teicoplanin and tetracyclin resistant strain) was incubated with tetracyclin, alone or with grZ14s-nvCyc ([…]), as described in the Examples above. […] Similarly, E. faecium ATCC 700221 (2×10^5 CFU/mL) (vancomycin, teicoplanin and tetracyclin resistant strain) was incubated with tetracyclin, alone or with grZ14s-nvCyc ([…]), as described in the Examples above.

[4] = system: Staphylococcus aureus ATCC 43300 (MRSA strain); test: as above; assay type: cell-based; settings: for bacteria killing concentration of oxacillin with grZ14s-nvCyc versus oxacillin alone: 10 nM grZ14s-nvCyc
Description: as §1, §2

[5] = system: S. aureus ATCC BAA 1708 (MRSA strain, mupA positive); test: CFU count after incubation with mupirocin alone or with grZ14s-nvCyc; assay type: cell-based, Staphylococcus aureus; settings: 1×10^5 CFU/mL; 10 nM grZ14s-nvCyc; FIG. 12
Description: as §1
S. aureus ATCC BAA® 1708 (MRSA strain, mupA positive) (1×10^5 CFU/mL) was incubated with mupirocin, alone or with grZ14s-nvCyc as described in the Examples above.

[6] = system: K. pneumoniae ATCC BAA 1705 (carbapenemase positive strain); test: CFU count after 24 h incubation with antibiotic alone or with grZ14s-nvCyc; assay type: cell-based, Klebsiella pneumoniae
Description: K. pneumoniae ATCC BAA® 1705 (3×10^2 CFU/mL) (carbapenemase positive strain) (carbapenem-imipenem and ertapenem, amikacin, aztreonam, levofloxacin and ciprofloxacin-resistant strain) was incubated with imipenem, alone or with the grZ14s-nvCyc peptide (10 nM), for 24 hours at 37° C. with shaking (250 rpm). The solutions were then treated as described in the examples above. […]
Similarly, K. pneumoniae ATCC BAA® 1705 (1×10^5 CFU/mL) was incubated with ciprofloxacin, alone or with grZ14s-nvCyc, as described in the Examples above. […]
K. pneumoniae ATCC BAA® 1705 (2×10^6 CFU/mL) (carbapenem-imipenem and ertapenem, amikacin, aztreonam, levofloxacin and ciprofloxacin-resistant strain) was incubated with levofloxacin, alone or with grZ14s-nvCyc, as described in the Examples above.
K. pneumoniae ATCC BAA® 1705 (1×10^5 CFU/mL) (carbapenem-imipenem and ertapenem, amikacin, aztreonam, levofloxacin and ciprofloxacin-resistant strain) was incubated with aztreonam, alone or with grZ14s-nvCyc, as described in the Examples above. […]

[7] = system: S. aureus ATCC 33591 (MRSA strain); test: as above; assay type: cell-based, Staphylococcus aureus; settings: 10 nM grZ14s-nvCyc
Description: as §3
as §4, with “S. aureus” for “Enterococcus faecium”, “33591 (5×10^5” for “700221 (4×10^2”, “(MRSA” for “(vancomycin, teicoplanin and tetracyclin resistant”, “oxacillin,” for “either vancomycin,”, “rpm). […]” for “rpm).”

## Cc1onc(-c2ccccc2)c1C(=O)N[C@@H]1C(=O)N2[C@@H]1SC(C)(C)[C@@H]2C(=O)O [oxacillin, reference compound]
[1]; ~7×10^6 CFU/mL, oxacillin alone, FIG. 2
  oxacillin concentration needed to kill the bacteria: 12.5 µg/mL

## CC1(C)S[C@@H]2[C@H](NC(=O)[C@H](N)c3ccccc3)C(=O)N2[C@H]1C(=O)O [ampicillin, reference compound]
[2]; 2×10^3 CFU/mL, FIG. 8
  bacteria killing by ampicillin alone: achieves bacteria killing with the antibiotic alone
[2]; 3×10^5 CFU/mL, even very high concentrations of ampicillin, FIG. 7
  bacterial killing by ampicillin alone: could not achieve bacterial killing

## O=C(N[C@H](CO)[C@H](O)c1ccc([N+](=O)[O-])cc1)C(Cl)Cl [chloramphenicol, reference compound]
[2]; 1×10^3 CFU/mL, FIG. 16
  bacteria killing by chloramphenicol alone: can achieve bacteria killing activity
[2]; 4×10^6 CFU/mL, at the concentration where the combination kills, FIG. 15
  bacteria killing by chloramphenicol alone: does not achieve bacteria killing

## cyclized CSVHSFDYDWYNVC (disulfide 1-14 (inferred); not fully specified) [grZ14s-nvCyc]
[3]; 1×10^3 CFU/mL, FIG. 13a
  bacteria killing concentration of tetracyclin lower with grZ14s-nvCyc than with tetracyclin alone: 60%
[3]; 2×10^2 CFU/mL, 10 nM grZ14s-nvCyc, FIG. 6
  bacteria killing concentration of teicoplanin lower with grZ14s-nvCyc than with teicoplanin alone: about 60%
[3]; 2×10^5 CFU/mL, FIG. 13b
  bacteria killing concentration of tetracyclin lower with grZ14s-nvCyc than with tetracyclin alone: ~70%
[3]; 4×10^2 CFU/mL, 10 nM grZ14s-nvCyc, FIG. 5
  bacteria killing concentration of vancomycin lower with grZ14s-nvCyc than with vancomycin alone: about 50%
[4]; 5×10^5 CFU/mL, 24 h, 37° C., FIG. 1a
  bacteria killing concentration of oxacillin with grZ14s-nvCyc versus oxacillin alone: much lower
[4]; 7×10^6 CFU/mL, FIG. 2
  bacteria killing concentration of oxacillin with grZ14s-nvCyc versus oxacillin alone: much lower
[4]; ~7×10^6 CFU/mL, oxacillin with 10 nM grZ14s-nvCyc, FIG. 2
  oxacillin concentration needed to kill the bacteria, with grZ14s-nvCyc: 6.25 µg/mL
[2]; 1×10^3 CFU/mL, 10 nM grZ14s-nvCyc, FIG. 16
  bacteria killing concentration of chloramphenicol with grZ14s-nvCyc lower than with chloramphenicol alone: 20%
[2]; 2×10^3 CFU/mL, 10 nM grZ14s-nvCyc, FIG. 8
  bacteria killing concentration of ampicillin lower with grZ14s-nvCyc than with ampicillin alone: 100 µg/mL
[2]; 2×10^6 CFU/mL, 10 nM grZ14s-nvCyc, FIG. 9
  bacteria killing concentration of cefoxitin lower with grZ14s-nvCyc than in cefoxitin alone: > 80%
[2]; 3×10^5 CFU/mL, 10 nM grZ14s-nvCyc, FIG. 7
  bacteria killing activity of ampicillin with grZ14s-nvCyc at lower concentrations: ~100%
[2]; 4×10^6 CFU/mL, 10 nM grZ14s-nvCyc, FIG. 15
  bacteria killing by chloramphenicol with grZ14s-nvCyc: achieves bacteria killing at a concentration where chloramphenicol alone does not achieve bacteria killing
[5]
  bacterial load in the presence of a combination of mupirocin and grZ14s-nvCyc: reduced by at least one order of magnitude
[6]; 1×10^5 CFU/mL, 10 nM grZ14s-nvCyc, FIG. 14
  bacteria killing concentration of ciprofloxacin lower with grZ14s-nvCyc than with ciprofloxacin alone: 80%
[6]; 1×10^5 CFU/mL, 10 nM grZ14s-nvCyc, FIG. 19
  aztreonam concentration at which aztreonam with grZ14s-nvCyc achieves bacteria killing: 1000 µg/mL
[6]; 1×10^6 CFU/mL, incubated with amikacin, alone or with grZ14s-nvCyc, FIG. 17
  bacteria killing concentration of amikacin with grZ14s-nvCyc lower than with amikacin alone: 75%
[6]; 2×10^6 CFU/mL, 10 nM grZ14s-nvCyc, FIG. 18
  bacteria killing concentration of levofloxacin with grZ14s-nvCyc lower than with levofloxacin alone: 30%
[6]; 3×10^2 CFU/mL, 10 nM grZ14s-nvCyc, FIG. 10
  bacteria killing concentration of imipenem lower with grZ14s-nvCyc than in imipenem alone: > 75%
[7]; 5×10^5 CFU/mL, FIG. 4a
  bacteria killing concentration of oxacillin with grZ14s-nvCyc versus oxacillin alone: much lower
[7]; 5×10^7 CFU/mL, FIG. 3
  bacteria killing concentration of oxacillin in the presence of the peptide versus oxacillin alone: reduced to about half
[1]; 1×10^6 CFU/mL, 10 nM grZ14s-nvCyc, FIG. 4b
  difference between the activity of oxacillin with or without grZ14s-nvCyc: no significant difference
[1]; 1×10^8 CFU/mL, 10 nM grZ14s-nvCyc, FIG. 3
  bacteria killing concentration of oxacillin in the presence of the peptide versus oxacillin alone: reduced to about half
[1]; 5×10^5 CFU/mL, 10 nM grZ14s-nvCyc, FIG. 1b
  difference between the activity of oxacillin with or without grZ14s-nvCyc: no significant difference

## C[C@H]1[C@H](NC(=O)/C(=N\OC(C)(C)C(=O)O)c2csc(N)n2)C(=O)N1S(=O)(=O)O [aztreonam, reference compound]
[6]; 1×10^3 CFU/mL, FIG. 19b
  bacteria killing by aztreonam alone: able achieve bacteria killing activity
[6]; 1×10^5 CFU/mL, at 1000 μg/ml aztreonam, FIG. 19
  bacteria killing by aztreonam alone: does not achieve bacteria killing
